Oligonucleotides are written 5' to 3', each unit as a sugar letter and its base; * is a phosphorothioate linkage, no mark a phosphodiester; rarer units and linkages stand in square brackets, end groups in braces. Plain capitals give the bases only. m = 2'-O-methyl; {P} = phosphate; f = 2'-fluoro
System: C3 mRNA
Assay: Dose response experiments (DRC) of modification variants, C3 mRNA knockdown in HepG2 cells
Type: cell-based, human
Details: for IC50 / IC80: 10 concentrations from 100 nM in 6-fold dilution steps; for Max KD: DRC experiments
Protocol: HepG2 cells were obtained from ATCC (ATCC in partnership with LGC Standards, Wesel, Germany, cat. #ATCC-HB-8065) and cultured in MEM Eagle (#M2279, Sigma-Aldrich, Germany), supplemented to contain 10% fetal calf serum (#1248D, Biochrom GmbH, Berlin, Germany), 1× non-essential amino acids (#K0293; Biochrom, Berlin, Germany), 4 mM L-Glutamine (#K0283, Biochrom, Berlin, Germany) and 100 U/ml Penicillin/100 μg/ml Streptomycin (#A2213, Biochrom GmbH, Berlin, Germany) at 37° C. in an atmosphere with 5% CO2 in a humidified incubator.
siRNAs were designed and synthesized based on the nucleotide sequence of the top siRNAs in terms of activity from Examples 1 and 2 (siRNA ID: 1, 4, 9, 10, 16, and 22) with different modification patterns. 5 “variants” were designed and synthesized for each of the top siRNA nucleotide sequences, and each duplex is identified as “variant1”, “variant2”, “variant3”, variant4”, “variant5” depending on which modifications were made. siRNAs from Examples 1 and 2 (siRNA ID: 1, 4, 9, 10, 16, and 22) are identified as “variant0”.
Transfection of siRNA was carried out with Lipofectamine RNAiMax (Invitrogen/Life Technologies, Karlsruhe, Germany) according to manufacturer's instructions for reverse transfection.
Each siRNA was tested using dose response experiments (DRC) in HepG2 cells. Two additional siRNAs (siRNA ID 26 and 27), known to knockdown C3 expression, were used as positive controls.
Dose-response experiments were done with siRNA in 10 concentrations transfected in quadruplicates, starting at 100 nM in 6-fold dilutions steps down to ˜10 fM. Mock transfected cells served as negative controls.
For each well, the target mRNA level was normalized to the respective GAPDH mRNA level. The activity of a given siRNA was expressed as percent mRNA concentration of the respective target (normalized to GAPDH mRNA) in treated cells, relative to the target mRNA concentration (normalized to GAPDH mRNA) averaged across mock transfected wells (DRCs).

Substance | IC50 [nM] | IC80 [nM] | Max KD [%] | C3 knockdown, comparison among modification variants of the same nucleotide sequence
26 (sense CAACUCACCUGUAAUAAAUUU; antisense AUUUAUUACAGGUGAGUUGUU; siRNA; sense: all phosphodiester, sugars by position not given here; antisense: all phosphodiester, 5' {P}, sugars by position not given here) [compound 26] | 0.006 | 0.062 | 86 | –
27 (sense GAGCCGUUCUCUACAAUUAUU; antisense UAAUUGUAGAGAACGGCUCUU; siRNA; sense: all phosphodiester, sugars by position not given here; antisense: all phosphodiester, 5' {P}, sugars by position not given here) [compound 27] | 0.004 | 0.027 | 89 | –
28 (sense mU*mC*fAmAmCmUfCfAfCmCmUfGmUmAmAmUfAmAmA; antisense mU*fU*mUmAmUmUmAmCmAmGmGmUmGfAmGmUmUmGmA*mU*mC; siRNA) [compound 28] | 0.001 | 0.711 | 95 | –
29 (sense fU*mC*fAmAfCmUfCmAfCmCfUmGfUmAfAmUfAmAfA; antisense mU*fU*mUfAmUfUmAfCmAfGmGfUmGfAmGfUmUfGmA*mU*mC; siRNA) [compound 29] | 0.979 | – | 68 | –
30 (sense fU*mC*fAmAfCmUfCmAfCmCfUmGfUmAfAmUfAmAfA; antisense mU*fU*mUmAmUmUmAmCmAmGmGmUmGfAmGmUmUmGmA*mU*mC; siRNA) [compound 30] | – | – | 36 | –
31 (sense fU*mC*fAmAfCmUfCmAfCmCfUmGfUmAfAmUfAmAfA; antisense mU*fU*mUmAmUfUmAmCmAmGmGmUmGfAmGfUmUmGmA*mU*mC; siRNA) [compound 31] | 0.343 | 7.64 | 81 | –
32 (sense mU*mC*fAmAmCmUfCfAfCmCmUfGmUmAmAmUfAmAmA; antisense mU*fU*mUmAmUfUmAmCmAmGmGmUmGfAmGfUmUmGmA*mU*mC; siRNA) [compound 32] | 0.018 | 0.108 | 93 | most effective in C3 knockdown
33 (sense mU*mC*fCmAmAmGfCfCfUmUmGfGmCmUmCmAfAmUmA; antisense mU*fA*mUmUmGmAmGmCmCmAmAmGmGfCmUmUmGmGmA*mA*mC; siRNA) [compound 33] | 0.075 | 0.601 | 91 | –
34 (sense fU*mC*fCmAfAmGfCmCfUmUfGmGfCmUfCmAfAmUfA; antisense mU*fA*mUfUmGfAmGfCmCfAmAfGmGfCmUfUmGfGmA*mA*mC; siRNA) [compound 34] | 0.324 | 1.64 | 86 | –
35 (sense fU*mC*fCmAfAmGfCmCfUmUfGmGfCmUfCmAfAmUfA; antisense mU*fA*mUmUmGmAmGmCmCmAmAmGmGfCmUmUmGmGmA*mA*mC; siRNA) [compound 35] | 0.622 | – | 55 | –
36 (sense fU*mC*fCmAfAmGfCmCfUmUfGmGfCmUfCmAfAmUfA; antisense mU*fA*mUmUmGfAmGmCmCmAmAmGmGfCmUfUmGmGmA*mA*mC; siRNA) [compound 36] | 0.486 | – | 68 | –
37 (sense mU*mC*fCmAmAmGfCfCfUmUmGfGmCmUmCmAfAmUmA; antisense mU*fA*mUmUmGfAmGmCmCmAmAmGmGfCmUfUmGmGmA*mA*mC; siRNA) [compound 37] | 0.168 | 1.38 | 86 | –
38 (sense mA*mU*fCmGmGmAfUfCfUmUmCfAmCmCmGmUfCmAmA; antisense mU*fU*mGmAmCmGmGmUmGmAmAmGmAfUmCmCmGmAmU*mA*mG; siRNA) [compound 38] | 0.151 | 0.728 | 91 | –
39 (sense fA*mU*fCmGfGmAfUmCfUmUfCmAfCmCfGmUfCmAfA; antisense mU*fU*mGfAmCfGmGfUmGfAmAfGmAfUmCfCmGfAmU*mA*mG; siRNA) [compound 39] | 0.326 | 1.66 | 86 | –
40 (sense fA*mU*fCmGfGmAfUmCfUmUfCmAfCmCfGmUfCmAfA; antisense mU*fU*mGmAmCmGmGmUmGmAmAmGmAfUmCmCmGmAmU*mA*mG; siRNA) [compound 40] | 0.468 | 2.44 | 87 | –
41 (sense fA*mU*fCmGfGmAfUmCfUmUfCmAfCmCfGmUfCmAfA; antisense mU*fU*mGmAmCfGmGmUmGmAmAmGmAfUmCfCmGmAmU*mA*mG; siRNA) [compound 41] | 1.4 | 11.1 | 84 | –

Substance | IC50 [nM] | IC80 [nM] | Max KD [%] | C3 knockdown, comparison among modification variants of the same nucleotide sequence
42 (sense mA*mU*fCmGmGmAfUfCfUmUmCfAmCmCmGmUfCmAmA; antisense mU*fU*mGmAmCfGmGmUmGmAmAmGmAfUmCfCmGmAmU*mA*mG; siRNA) [compound 42] | 0.5 | 2.91 | 84 | –
43 (sense mU*mC*fAmAmCmUfUfCfCmUmCfCmUmGmCmGfAmAmA; antisense mU*fU*mUmCmGmCmAmGmGmAmGmGmAfAmGmUmUmGmA*mC*mG; siRNA) [compound 43] | 0.096 | 3.22 | 82 | –
44 (sense fU*mC*fAmAfCmUfUmCfCmUfCmCfUmGfCmGfAmAfA; antisense mU*fU*mUfCmGfCmAfGmGfAmGfGmAfAmGfUmUfGmA*mC*mG; siRNA) [compound 44] | 0.386 | – | 76 | –
45 (sense fU*mC*fAmAfCmUfUmCfCmUfCmCfUmGfCmGfAmAfA; antisense mU*fU*mUmCmGmCmAmGmGmAmGmGmAfAmGmUmUmGmA*mC*mG; siRNA) [compound 45] | 0.905 | – | 50 | –
46 (sense fU*mC*fAmAfCmUfUmCfCmUfCmCfUmGfCmGfAmAfA; antisense mU*fU*mUmCmGfCmAmGmGmAmGmGmAfAmGfUmUmGmA*mC*mG; siRNA) [compound 46] | 0.54 | – | 63 | –
47 (sense UCAACUUCCUCCUGCGAAA; antisense UUUCGCAGGAGGAAGUUGACG; 2'-F, 2'-OMe, phosphorothioate modifications, chemistry not fully specified) [compound 47] | 0.055 | 0.708 | 83 | –
48 (sense mC*mA*fAmUmGmAfCfUfUmUmGfAmCmGmAmGfUmAmA; antisense mU*fU*mAmCmUmCmGmUmCmAmAmAmGfUmCmAmUmUmG*mG*mA; siRNA) [compound 48] | 0.119 | 8.35 | 82 | –
49 (sense fC*mA*fAmUfGmAfCmUfUmUfGmAfCmGfAmGfUmAfA; antisense mU*fU*mAfCmUfCmGfUmCfAmAfAmGfUmCfAmUfUmG*mG*mA; siRNA) [compound 49] | – | – | 28 | –
50 (sense fC*mA*fAmUfGmAfCmUfUmUfGmAfCmGfAmGfUmAfA; antisense mU*fU*mAmCmUmCmGmUmCmAmAmAmGfUmCmAmUmUmG*mG*mA; siRNA) [compound 50] | – | – | 16 | –
51 (sense fC*mA*fAmUfGmAfCmUfUmUfGmAfCmGfAmGfUmAfA; antisense mU*fU*mAmCmUfCmGmUmCmAmAmAmGfUmCfAmUmUmG*mG*mA; siRNA) [compound 51] | – | – | 32 | –
52 (sense mC*mA*fAmUmGmAfCfUfUmUmGfAmCmGmAmGfUmAmA; antisense mU*fU*mAmCmUfCmGmUmCmAmAmAmGfUmCfAmUmUmG*mG*mA; siRNA) [compound 52] | 0.058 | 1.89 | 85 | –
53 (sense mC*mC*fAmAmCmUfAfCfAmUmGfAmAmCmCmUfAmCmA; antisense mU*fG*mUmAmGmGmUmUmCmAmUmGmUfAmGmUmUmGmG*mC*mU; siRNA) [compound 53] | 0.056 | 0.51 | 91 | –
54 (sense fC*mC*fAmAfCmUfAmCfAmUfGmAfAmCfCmUfAmCfA; antisense mU*fG*mUfAmGfGmUfUmCfAmUfGmUfAmGfUmUfGmG*mC*mU; siRNA) [compound 54] | 0.29 | 1.52 | 89 | –
55 (sense fC*mC*fAmAfCmUfAmCfAmUfGmAfAmCfCmUfAmCfA; antisense mU*fG*mUmAmGmGmUmUmCmAmUmGmUfAmGmUmUmGmG*mC*mU; siRNA) [compound 55] | 0.265 | 1.74 | 89 | –
56 (sense fC*mC*fAmAfCmUfAmCfAmUfGmAfAmCfCmUfAmCfA; antisense mU*fG*mUmAmGfGmUmUmCmAmUmGmUfAmGfUmUmGmG*mC*mU; siRNA) [compound 56] | 0.228 | 1.2 | 91 | –
57 (sense mC*mC*fAmAmCmUfAfCfAmUmGfAmAmCmCmUfAmCmA; antisense mU*fG*mUmAmGfGmUmUmCmAmUmGmUfAmGfUmUmGmG*mC*mU; siRNA) [compound 57] | 0.029 | 1.38 | 91 | –

Source: patent US20230095695A1, “RNAS FOR COMPLEMENT INHIBITION” (Apellis Pharmaceuticals, Inc., priority 2020, published 2023)
